# Test results as given in paper PMC1208959 (Virology Journal, 2005).
# Assays:
# [1] = system: live HeV
# [2] = system: live NiV
compound,measurement,setting,value
CC[C@H](C)[C@H](NC(=O)[C@H](Cc1ccc(O)cc1)NC(=O)[C@H](CC(=O)O)NC(=O)[C@H](CCCCN)NC(=O)[C@H](CO)NC(=O)[C@H](CCC(N)=O)NC(=O)[C@H](CCC(N)=O)NC(=O)[C@H](CC(C)C)NC(=O)[C@H](CO)NC(=O)[C@H](CCC(N)=O)NC(=O)[C@H](CC(N)=O)NC(=O)[C@H](CCSC)NC(=O)[C@H](CO)NC(=O)[C@H](CO)NC(=O)[C@@H](NC(=O)[C@H](CCC(N)=O)NC(=O)[C@H](CO)NC(=O)[C@H](CO)NC(=O)[C@@H](NC(=O)[C@H](CC(=O)O)NC(=O)[C@@H](NC(=O)[C@H](CCCCN)NC(=O)CCOCCOCCOCCOCCOCCOCCOCCOCCOCCOCCOCCOCCNC(C)=O)C(C)C)[C@@H](C)CC)[C@@H](C)CC)C(=O)N[C@@H](CCCCN)C(=O)N[C@@H](CCC(=O)O)C(=O)N[C@@H](C)C(=O)N[C@@H](CCC(N)=O)C(=O)N[C@@H](CCCNC(=N)N)C(=O)N[C@@H](CC(C)C)C(=O)N[C@@H](CC(C)C)C(=O)N[C@@H](CC(=O)O)C(=O)N[C@H](C(=O)N[C@H](C(=O)N[C@@H](CC(N)=O)C(=O)N1CCC[C@H]1C(=O)N[C@@H](CO)C(=O)N[C@@H](CC(C)C)C(N)=O)C(C)C)[C@@H](C)O [N-PEG NiV FC2],number of syncytia per cell monolayer (in words),[1],largely unchanged
same,syncytial morphology and size (in words),[1],dramatic and robust reduction in syncytial size
same,number of syncytia per cell monolayer (in words),[2],largely unchanged
same,syncytial morphology and size (in words),[2],dramatic and robust reduction in syncytial size
